Measurements from patent US9079866B2, “Flap modulators” (JANSSEN PHARMACEUTICA NV, priority 2013, dated 2015).
Structures can show the parent of a compound that is named as a salt. Where two headings read alike, the source gives them in different places.

Assays:
human FLAP = human FLAP (Homo sapiens (Human), UniProt P20292); test: FLAP binding assay (HTRF format); settings: HTRF format
Method in brief: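 Read-out is the HTRF ratio. Each reported figure averages two assay plates on which samples were tested in duplicate.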

[1] = system: leukotriene pathway in human whole blood (LTB4 levels); test: Human whole blood assay (A23187-stimulated LTB4); assay type: cell-based; settings: Homo sapiens, read-out: LTB4 IC50 1:1
Method in brief: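 Compounds are pre-incubated 15 min at 37° Celsius in RPMI-diluted (1:1) heparinised whole blood before a 30 min A23187 stimulus (7 μg/mL). Plasma LTB4 is read by immunoassay kit, with IC50 calculated from a 4-parameter equation.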

[2] = human FLAP wild type, average of two plates, duplicates
[3] = human whole blood diluted 1:1 in RPMI, A23187-stimulated LTB4
[4] = human whole blood diluted 1:1, A23187-stimulated

Sequence of human FLAP (P20292 whole entry): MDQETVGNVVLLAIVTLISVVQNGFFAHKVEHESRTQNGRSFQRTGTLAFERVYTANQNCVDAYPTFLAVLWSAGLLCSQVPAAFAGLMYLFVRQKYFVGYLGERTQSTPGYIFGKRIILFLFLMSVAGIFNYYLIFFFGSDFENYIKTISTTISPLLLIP

Structure (SMILES) | Ki (human FLAP; [2]) | IC50 [1, 3] | Ki (human FLAP; wild type FLAP) | IC50 [1, 4]
Nc1cnc(-c2ccc(-c3ccccc3SCC(=O)N3CCOCC3)cc2F)cn1 [Example 202, 5-{3-Fluoro-2′-[(2-morpholin-4-yl-2-oxoethyl)sulfanyl]biphenyl-4-yl}pyrazin-2-amine] | 72 nM | 172 nM | – | –
Nc1ncc(-c2ccc(-c3ccccc3S(=O)(=O)C3CC3)cc2F)cn1 [Example 254, 5-[2′-(Cyclopropylsulfonyl)-3-fluorobiphenyl-4-yl]pyrimidin-2-amine] | 80 nM | 586 nM | – | –
O=C1NCC[C@@H]1NS(=O)(=O)c1ccccc1-c1ccc(-c2cnc3[nH]ccc3c2)c(F)c1 [Example 364, 3′-Fluoro-N-[(3S)-2-oxopyrrolidin-3-yl]-4′-(1H-pyrrolo[2,3-b]pyridin-5-yl)biphenyl-2-sulfonamide] | 3 nM | 150 nM | – | –
CC(C)(C)NS(=O)(=O)c1ccccc1-c1ccc(-c2cn3cccc(F)c3n2)c(F)c1 [Example 580, N-tert-Butyl-3′-fluoro-4′-(8-fluoroimidazo[1,2-a]pyridin-2-yl)biphenyl-2-sulfonamide] | – | – | 55 nM | 5000 nM
CN([C@@H]1CCCNC1)S(=O)(=O)c1ccccc1-c1ccc(-c2cnc(N)nc2)c(F)c1 [Example 257, 4′-(2-Aminopyrimidin-5-yl)-3′-fluoro-N-methyl-N-[(3R)-piperidin-3-yl]biphenyl-2-sulfonamide] | 154 nM | 1120 nM | – | –
Nc1cnc(-c2ccc(-c3cccnc3O[C@H]3CC[C@H](N)CC3)cc2F)cn1 [Example 652, 5-(4-{2-[(trans-4-Aminocyclohexyl)oxy]pyridin-3-yl}-2-fluorophenyl)pyrazin-2-amine formic acid salt] | – | – | 62.7 nM | 842 nM
Nc1ncc(-c2ccc(-c3ccccc3S(=O)(=O)N3CC4(C3)CS(=O)(=O)C4)cc2F)cn1 [Example 313, 6-((4′-(2-Aminopyrimidin-5-yl)-3′-fluoro-[1,1′-biphenyl]-2-yl)sulfonyl)-2-thia-6-azaspiro[3.3]heptane 2,2-dioxide] | 397 nM | 574 nM | – | –
Nc1cnc(-c2ccc(-c3ccccc3S(=O)(=O)NCCCCCO)cc2F)cn1 [Example 132, 4′-(5-Aminopyrazin-2-yl)-3′-fluoro-N-(5-hydroxypentyl)biphenyl-2-sulfonamide] | 2 nM | 11 nM | – | –
N#Cc1cccc(COc2ccccc2-c2ccc(-c3cnc(N)cn3)c(F)c2)n1 [Example 530, 6-({[4′-(5-Aminopyrazin-2-yl)-3′-fluorobiphenyl-2-yl]oxy}methyl)pyridine-2-carbonitrile] | – | – | 34 nM | 1110 nM
CC(C)(C)NS(=O)(=O)c1ccccc1-c1ccc(-c2cnc(N)cn2)c(F)c1F [Example 462, 4′-(5-Aminopyrazin-2-yl)-N-tert-butyl-2′,3′-difluorobiphenyl-2-sulfonamide] | – | – | 2 nM | 62 nM
Nc1cnc(-c2ccc(-c3ccccc3-c3cncc(N)n3)cc2F)cn1 [Example 842, 5-[2′-(6-Aminopyrazin-2-yl)-3-fluorobiphenyl-4-yl]pyrazin-2-amine] | – | – | 5.3 nM | 61 nM
C[C@@H](NC(=O)c1cc(C(F)(F)F)ccc1-c1ccc(-c2cnc(N)cn2)c(F)c1)C(F)(F)F [Example 787, 2-[4-(5-Aminopyrazin-2-yl)-3-fluoro-phenyl]-5-(trifluoromethyl)-N-[(1R)-2,2,2-trifluoro-1-methyl-ethyl]benzamide] | – | – | 9.1 nM | 97.9 nM
CC(C)(C)NS(=O)(=O)c1ccccc1-c1ccc(-c2cnc3[nH]ccc3n2)c(F)c1 [Example 371, N-tert-Butyl-3′-fluoro-4′-(5H-pyrrolo[2,3-b]pyrazin-2-yl)biphenyl-2-sulfonamide] | 1 nM | 15 nM | – | –
Cc1nccc(Oc2ccccc2-c2ccc(-c3cnc(N)nc3)c(F)c2)n1 [Example 542, 5-{3-Fluoro-2′-[(2-methylpyrimidin-4-yl)oxy]penyl-4-yl}pyrimidin-2-amine] | – | – | 107 nM | 311 nM
